Columns and labels:
CDK1/Cyclin B1 = CDK1/Cyclin B1 (Homo sapiens, UniProt P06493); test: CDK1/Cyclin B1 Biochemical Assay (TR-FRET), 0.015 mM ATP; settings: 0.15 μM Rb (Ser780)-biotin substrate, pH7.0, 60 min preincubation, 120 min reaction, room temperature
Method: (§1) CDK2/Cyclin E1 and CDK1/Cyclin B1 Biochemical Assays
(§2) Compounds disclosed herein were tested for inhibition of CDK2/Cyclin E1 or CDK1/Cyclin B1 kinase in an assay based on the time-resolved fluorescence-resonance energy transfer (TR-FRET) methodology. The assay was carried out in 384-well low volume black plates in a reaction mixture containing CDK2/Cyclin E1 or CDK1/Cyclin B1, 0.060 mM ATP for CDK2/Cyclin E1 or 0.015 mM ATP for CDK1/Cyclin B1, 0.15 μM Rb (Ser780)-biotin substrate and 0-10 μM compound in buffer containing 50 mM HEPES pH7.0, 0.02% NaN3, 0.01% BSA, 0.1 mM Orthovanadate, 50 mM MgCl2, 1 mM DTT and 0.005% Tween-20. The kinase was incubated with compound for 60 minutes at room temperature and the reaction was initiated by the addition of ATP and Rb (Ser780)-biotin substrate. After reaction at room temperature for 120 minutes, an equal volume of stop/detection solution was added according to the manufacture's instruction (Cisbio Bioassays). The stop/detection solution contained Streptavidin-XL665 and Anti-pRb (Ser780) mAb-Eu Cryptate in Detection buffer (Cisbio Bioassays). Plates were incubated at room temperature for 60 minutes, and the TR-FRET signals (ex337 nm, em665 nm/620 nm) were recorded on a PHERAstar FSX plate reader (BMG Labtech). The inhibition percentage of CDK2/Cyclin E1 or CDK1/Cyclin B1 kinase activity in presence of increasing concentrations of compounds was calculated based on the ratio of fluorescence at 665 nm to that at 620 nm. The IC50 for each compound was derived from fitting the data to the four-parameter logistic equation by Dotmatics.

CDK2/Cyclin E1 = CDK2/Cyclin E1 (Homo sapiens, UniProt P24941); test: CDK2/Cyclin E1 Biochemical Assay (TR-FRET), 0.060 mM ATP; settings: 0.15 μM Rb (Ser780)-biotin substrate, pH7.0, 60 min preincubation, 120 min reaction, room temperature
Method: as §1, §2

Sequence of CDK1/Cyclin B1 (P06493 whole entry): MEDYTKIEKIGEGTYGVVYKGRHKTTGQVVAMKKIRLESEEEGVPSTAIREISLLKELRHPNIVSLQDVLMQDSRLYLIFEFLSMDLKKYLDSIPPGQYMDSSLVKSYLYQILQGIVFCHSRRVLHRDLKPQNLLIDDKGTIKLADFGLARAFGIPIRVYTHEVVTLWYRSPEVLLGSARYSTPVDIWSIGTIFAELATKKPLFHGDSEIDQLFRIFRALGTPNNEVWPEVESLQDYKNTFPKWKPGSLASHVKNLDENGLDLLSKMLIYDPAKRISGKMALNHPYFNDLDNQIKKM
Sequence of CDK1/Cyclin B1 (P14635 whole entry partner): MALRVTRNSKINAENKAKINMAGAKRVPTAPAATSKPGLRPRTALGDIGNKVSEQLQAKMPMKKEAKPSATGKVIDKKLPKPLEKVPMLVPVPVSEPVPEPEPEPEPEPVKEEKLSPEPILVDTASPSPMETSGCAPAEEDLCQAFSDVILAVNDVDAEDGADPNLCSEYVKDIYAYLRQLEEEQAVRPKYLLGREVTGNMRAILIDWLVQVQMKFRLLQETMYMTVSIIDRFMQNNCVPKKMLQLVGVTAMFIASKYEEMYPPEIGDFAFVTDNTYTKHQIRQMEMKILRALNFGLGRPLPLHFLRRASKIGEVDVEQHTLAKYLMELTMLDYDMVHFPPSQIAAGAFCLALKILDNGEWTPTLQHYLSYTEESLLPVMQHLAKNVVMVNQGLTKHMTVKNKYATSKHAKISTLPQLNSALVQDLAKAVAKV

SMILES | IC50 (CDK1/Cyclin B1) | IC50 (CDK2/Cyclin E1)
CN1Cc2c(ccc(Nc3cc([C@@H]4CC[C@H](OC(=O)NC5CCC(O)CC5)C4)[nH]n3)c2F)S1(=O)=O (single isomer, unassigned) [Example 166, cis-3-(3-((4-fluoro-2-methyl-1,1-dioxido-2,3-dihydrobenzo[d]isothiazol-5-yl)amino)-1H-pyrazol-5-yl)cyclopentyl(4-hydroxycyclohexyl)carbamate] | 74 nM | 2.9 nM
CC(C)NC(=O)O[C@H]1CC[C@@H](c2cc(Nc3ccc4c(c3F)CN(CCN(C)C)S4(=O)=O)n[nH]2)C1 (relative stereo) [Example 74, cis-3-(3-((2-(2-(dimethylamino)ethyl)-4-fluoro-1,1-dioxido-2,3-dihydrobenzo[d]isothiazol-5-yl)amino-1H-pyrazol-5-yl)cyclopentyl isopropylcarbamate] | 962 nM | 16 nM
CC1(NC(=O)O[C@H]2CC[C@@H](c3cc(Nc4ccc5c(c4F)CS(=O)(=O)N5)n[nH]3)C2)COC1 (relative stereo) [Example 374, cis-3-(3-((4-fluoro-2,2-dioxido-1,3-dihydrobenzo[c]isothiazol-5-yl)amino)-1H-pyrazol-5-yl)cyclopentyl(3-methyloxetan-3-yl)carbamate] | 118 nM | 5.7 nM
CC(C)NC(=O)O[C@H]1CC[C@@H](c2cc(Nc3ccc4c(c3F)CNS4(=O)=O)n[nH]2)C1 (single isomer, unassigned) [Example 9a, cis-3-(3-((4-fluoro-1,1-dioxido-2,3-dihydrobenzo[d]isothiazol-5-yl)amino)-1H-pyrazol-5-yl)cyclopentyl isopropylcarbamate] | 375 nM | 4.5 nM
CC1(NC(=O)O[C@H]2CC[C@@H](c3cc(Nc4ccc5c(c4F)CNS5(=O)=O)n[nH]3)C2)CCOC1 (single isomer, unassigned) [Example 162c, cis-3-(3-((4-fluoro-1,1-dioxido-2,3-dihydrobenzo[d]isothiazol-5-yl)amino)-1H-pyrazol-5-yl)cyclopentyl(3-methyltetrahydrofuran-3-yl)carbamate] | 408 nM | 3.1 nM
CC(C)NC(=O)O[C@H]1CC[C@@H](c2cc(Nc3ccc4c(c3F)S(=O)(=O)N(CCO)C4)n[nH]2)C1 (relative stereo) [Example 192, cis-3-(3-((7-fluoro-2-(2-hydroxyethyl)-1,1-dioxido-2,3-dihydrobenzo[d]isothiazol-6-yl)amino)-1H-pyrazol-5-yl)cyclopentyl isopropylcarbamate] | 116 nM | 6 nM
CNC(=O)O[C@H]1CC[C@@H](c2cc(Nc3ccc4c(c3F)CNS4(=O)=O)n[nH]2)C1 (relative stereo) [Example 153, cis-3-(3-((4-fluoro-1,1-dioxido-2,3-dihydrobenzo[d]isothiazol-5-yl)amino)-1H-pyrazol-5-yl)cyclopentyl methylcarbamate] | 1120 nM | 91 nM
CC(C)NC(=O)O[C@H]1CC[C@@H](c2cc(Nc3cc(F)c4c(c3)CS(=O)(=O)N4C)n[nH]2)C1 (relative stereo) [Example 280, cis-3-(3-((7-fluoro-1-methyl-2,2-dioxido-1,3-dihydrobenzo[c]isothiazol-5-yl)amino)-1H-pyrazol-5-yl)cyclopentyl isopropylcarbamate] | 149 nM | 10 nM
CC[C@H](C)NC(=O)O[C@H]1CC[C@@H](c2cc(Nc3ccc4c(c3F)CNS4(=O)=O)n[nH]2)C1 (single isomer, unassigned) [Example 139a] | 223 nM | 1.2 nM
CC1(O)CCN(C(=O)O[C@H]2CC[C@@H](c3cc(Nc4ccc5c(c4)CNS5(=O)=O)n[nH]3)C2)C1 (relative stereo) [Example 176, cis-3-(3-((1,1-dioxido-2,3-dihydrobenzo[d]isothiazol-5-yl)amino)-1H-pyrazol-5-yl)cyclopentyl 3-hydroxy-3-methylpyrrolidine-1-carboxylate] | 230 nM | 8 nM
CC(C)NC(=O)O[C@H]1CC[C@@H](c2cc(Nc3ccc4c(c3)N(C)S(=O)(=O)C4)n[nH]2)C1 (relative stereo) [Example 308, cis-3-(3-((1-methyl-2,2-dioxido-1,3-dihydrobenzo[c]isothiazol-6-yl)amino)-1H-pyrazol-5-yl)cyclopentyl isopropylcarbamate] | 26 nM | 2.2 nM
CC(NC(=O)O[C@H]1CC[C@@H](c2cc(Nc3ccc4c(c3F)CNS4(=O)=O)n[nH]2)C1)C1COC1 (relative stereo) [Example 147, cis-3-(3-((4-fluoro-1,1-dioxido-2,3-dihydrobenzo[d]isothiazol-5-yl)amino)-1H-pyrazol-5-yl)cyclopentyl(1-(oxetan-3-yl)ethyl)carbamate] | 606 nM | 9.1 nM
CC(C)NC(=O)O[C@H]1CC[C@@H](c2cc(Nc3ccc4c(c3F)CS(=O)(=O)N4CC(C)(C)O)n[nH]2)C1 (racemic) [Example 254, cis-3-(3-((4-fluoro-1-(2-hydroxy-2-methylpropyl)-2,2-dioxido-1,3-dihydrobenzo[c]isothiazol-5-yl)amino)-1H-pyrazol-5-yl)cyclopentyl isopropylcarbamate] | 249 nM | 10 nM
CC(C)NC(=O)O[C@H]1CC[C@@H](c2cc(Nc3ccc4c(c3F)CNS4(=O)=O)n[nH]2)C1 (single isomer, unassigned) [Example 9b, cis-3-(3-((4-fluoro-1,1-dioxido-2,3-dihydrobenzo[d]isothiazol-5-yl)amino)-1H-pyrazol-5-yl)cyclopentyl isopropylcarbamate] | 94 nM | 2.5 nM
CC(C)NC(=O)O[C@H]1CC[C@@H](c2cc(Nc3ccc4c(c3F)CS(=O)(=O)N4C3CC3)n[nH]2)C1 (single isomer, unassigned) [Example 275b, cis-3-(3-((1-cyclopropyl-4-fluoro-2,2-dioxido-1,3-dihydrobenzo[c]isothiazol-5-yl)amino)-1H-pyrazol-5-yl)cyclopentyl isopropylcarbamate] | 160 nM | 3.1 nM
CC[C@H](C)NC(=O)O[C@H]1CC[C@@H](c2cc(Nc3ccc4c(c3F)CN(C3CC3)S4(=O)=O)n[nH]2)C1 (single isomer, unassigned) [Example 117a] | 326 nM | 2.5 nM
CC(C)NC(=O)O[C@H]1CC[C@@H](c2cc(Nc3ccc4c(c3)CS(=O)(=O)N4CCO)n[nH]2)C1 (single isomer, unassigned) [Example 219a, cis-3-(3-((1-(2-hydroxyethyl)-2,2-dioxido-1,3-dihydrobenzo[c]isothiazol-5-yl)amino)-1H-pyrazol-5-yl)cyclopentyl isopropylcarbamate] | 46 nM | 5.4 nM
O=C(NC1(CO)CCC1)O[C@H]1CC[C@@H](c2cc(Nc3ccc4c(c3F)CS(=O)(=O)N4)n[nH]2)C1 (relative stereo) [Example 418, cis-3-(3-((4-fluoro-2,2-dioxido-1,3-dihydrobenzo[c]isothiazol-5-yl)amino)-1H-pyrazol-5-yl)cyclopentyl(1-(hydroxymethyl)cyclobutyl)carbamate] | 32 nM | 2 nM
CC(C)NC(=O)O[C@H]1CC[C@@H](c2cc(Nc3ccc4c(c3O)CNS4(=O)=O)n[nH]2)C1 (relative stereo) [Example 405, cis-3-(3-((4-hydroxy-1,1-dioxido-2,3-dihydrobenzo[d]isothiazol-5-yl)amino)-1H-pyrazol-5-yl)cyclopentyl isopropylcarbamate] | 644 nM | 10 nM
CC(C)NC(=O)O[C@H]1CC[C@@H](c2cc(Nc3cc4c(cc3F)N(CCO)S(=O)(=O)C4)n[nH]2)C1 (single isomer, unassigned) [Example 296b, cis-3-(3-((6-fluoro-1-(2-hydroxyethyl)-2,2-dioxido-1,3-dihydrobenzo[c]isothiazol-5-yl)amino)-1H-pyrazol-5-yl)cyclopentyl isopropylcarbamate] | 497 nM | 8.4 nM
CC1(NC(=O)O[C@H]2CC[C@@H](c3cc(Nc4ccc5c(c4F)CS(=O)(=O)N5CC(F)(F)F)n[nH]3)C2)CCOC1 (relative stereo) [Example 407, cis-3-(3-((4-fluoro-2,2-dioxido-1-(2,2,2-trifluoroethyl)-1,3-dihydrobenzo[c]isothiazol-5-yl)amino)-1H-pyrazol-5-yl)cyclopentyl(3-methyltetrahydrofuran-3-yl)carbamate] | 129 nM | 1.6 nM
CC(C)NC(=O)O[C@H]1CC[C@@H](c2cc(Nc3cc4c(cc3F)S(=O)(=O)N(C)C4)n[nH]2)C1 (relative stereo) [Example 45, cis-3-(3-((6-fluoro-2-methyl-1,1-dioxido-2,3-dihydrobenzo[d]isothiazol-5-yl)amino)-1H-pyrazol-5-yl)cyclopentyl isopropylcarbamate] | 6010 nM | 181 nM

Reference: patent US20260297080A1, “BICYCLIC COMPOUNDS AS CDK INHIBITORS” (BeOne Medicines I GmbH, priority 2022, published 2026)
